Our source for the TGI values is PubChem BioAssay (NCI).

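Protocol summary: plate cells (96-well), add compound at 5 concentrations, incubate 48 h, interpolate endpoints linearly. TGI: concentration producing complete growth inhibition.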

Some test systems named below: HOP-62 NSCLC; A549 NSCLC; SF-295 CNS; NCI-H460 lung; SW-620 colon; SK-MEL-2 melanoma; SN12C renal; HS 578T breast; UACC-62 melanoma; SNB-75 CNS.
Common to all, as to experiment: NCI anticancer screen, dose series, 48 h

On to `COC(=O)/C=C/c1cc(O)c2c(c1)[C@H](C(=O)OC)[C@@H](c1ccc(O)c(O)c1)O2`, for which the TGI in the assay with HOP-62 NSCLC was greater than 58.7 µM; in the assay with A549 NSCLC, greater than 100 µM; in the assay on SF-295 CNS it was greater than 93.2 µM; with NCI-H460 lung, 24.5 µM; in the assay on SW-620 colon it was greater than 100 µM; in the assay with SK-MEL-2 melanoma, greater than 70 µM. Moreover, the TGI was greater than 74.1 µM in the assay on SN12C renal, 78.3 µM in the assay with HS 578T breast, greater than 59.5 µM in the assay with UACC-62 melanoma and 0.0711 µM in the assay with SNB-75 CNS.
`CN(C)CCNC(=O)c1cccc2nc3c(nc12)-c1ccccc1C3=O`: the TGI was 16.6 µM with HOP-62 NSCLC; 37.7 µM in the assay on A549 NSCLC; 39 µM in the assay with SF-295 CNS; 18.9 µM with NCI-H460 lung; 39.4 µM with SW-620 colon; 32.4 µM with SK-MEL-2 melanoma. Besides, the TGI in the assay with SN12C renal was 28.9 µM; with HS 578T breast it was 44 µM; with UACC-62 melanoma it was 60.4 µM; with SNB-75 CNS, 31 µM.
As to `CCOC(=O)/C=C(/C(=O)OCC)n1cc(C)c(=O)n(Cc2cn(COCCOC(C)=O)nn2)c1=O`, the TGI is greater than 100 µM in the assay with HOP-62 NSCLC; greater than 100 µM in the assay with A549 NSCLC; greater than 100 µM in the assay on SF-295 CNS; greater than 63.1 µM in the assay on NCI-H460 lung; greater than 57.6 µM in the assay with SW-620 colon; greater than 100 µM in the assay on SK-MEL-2 melanoma. The TGI in the assay with SN12C renal is 59.8 µM; with HS 578T breast, greater than 78.3 µM; in the assay on UACC-62 melanoma it was 40.9 µM; with SNB-75 CNS, greater than 100 µM.
With `CC(C)(C)C1(COC(=O)c2ccc(N)cc2)COC1`, the TGI in the assay with HOP-62 NSCLC, in the assay on A549 NSCLC, in the assay on SF-295 CNS, in the assay with NCI-H460 lung, in the assay on SW-620 colon and in the assay on SK-MEL-2 melanoma was greater than 100 µM each time. Further, the TGI in the assay with SN12C renal, in the assay on HS 578T breast, with UACC-62 melanoma and in the assay on SNB-75 CNS was greater than 100 µM throughout.
Turning to `O=C1C=C(Br)c2c(Br)sc(Br)c21`, the TGI is greater than 79.9 µM in the assay on HOP-62 NSCLC; greater than 77.3 µM in the assay with A549 NSCLC; 99.4 µM with SF-295 CNS; greater than 61.8 µM in the assay on NCI-H460 lung; greater than 20.6 µM in the assay on SW-620 colon; 49.3 µM in the assay with SK-MEL-2 melanoma. In addition, the TGI in the assay with SN12C renal is 38.3 µM; in the assay with HS 578T breast it was greater than 100 µM; with UACC-62 melanoma, 29.2 µM; with SNB-75 CNS, 39.7 µM.
Take `Cc1sc(/N=C/c2c[nH]c3ccccc23)c(C#N)c1C`: the TGI in the assay with HOP-62 NSCLC, in the assay on A549 NSCLC, with SF-295 CNS, in the assay on NCI-H460 lung, in the assay on SW-620 colon and in the assay with SK-MEL-2 melanoma was greater than 100 µM in each case. Moreover, the TGI in the assay on SN12C renal is greater than 100 µM; in the assay on HS 578T breast, greater than 100 µM; with UACC-62 melanoma, 78.8 µM; with SNB-75 CNS it was greater than 100 µM.
Take `C=CCSC1=N/C(=C\c2ccccc2)C(=O)N1CC=C`: the TGI in the assay with HOP-62 NSCLC was greater than 100 µM; in the assay with A549 NSCLC, greater than 100 µM; in the assay on SF-295 CNS, greater than 100 µM; in the assay with NCI-H460 lung it was greater than 100 µM; with SW-620 colon it was greater than 100 µM; in the assay with SK-MEL-2 melanoma, 97.6 µM. For the same compound, the TGI in the assay with SN12C renal was greater than 100 µM; in the assay with HS 578T breast, greater than 89.4 µM; in the assay on UACC-62 melanoma it was greater than 100 µM; in the assay on SNB-75 CNS, 89.2 µM.
